Assay results taken from patent publication US20240261294A1, “METHOD FOR TREATING IDH INHIBITOR-RESISTANT SUBJECTS” (Eli Lilly and Company, priority 2021, published 2024).
Where a chain is given by its changes, count along the chain named.

Columns and labels:
IDH2 R140L_Q316E trans = molecular target: T1, IDH2 R140L_Q316E trans (Homo sapiens, UniProt P48735, Q316E/R140L); assay: Inhibition of 2-HG production in IDH2 mutant U-87 MG cells; type: cell-based; conditions: 16 hours incubation, 50K cells/well, 100 μl media/well, read-out: Relative IC50 (nM) Mean, inhibition of 2-HG production
T1 construct: expressed in transfected cells; host or cells: U-87 MG
T1 sequence (P48735 40-452 R140L): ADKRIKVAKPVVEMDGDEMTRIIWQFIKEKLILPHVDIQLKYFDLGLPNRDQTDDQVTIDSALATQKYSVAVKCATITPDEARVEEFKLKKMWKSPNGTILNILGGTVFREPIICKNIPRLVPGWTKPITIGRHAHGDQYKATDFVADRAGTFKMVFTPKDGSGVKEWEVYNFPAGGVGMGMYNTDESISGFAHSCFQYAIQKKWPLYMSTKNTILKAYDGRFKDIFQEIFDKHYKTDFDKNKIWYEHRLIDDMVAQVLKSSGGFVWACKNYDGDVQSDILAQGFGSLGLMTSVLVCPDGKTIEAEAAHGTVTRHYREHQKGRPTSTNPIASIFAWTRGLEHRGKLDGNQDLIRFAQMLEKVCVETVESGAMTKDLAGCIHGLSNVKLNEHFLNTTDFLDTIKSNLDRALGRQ
T1 sequence (P48735 40-452 Q316E): T1 sequence (P48735 40-452 R140L) with L101R, Q277E
Protocol: (§1) Compounds and Formulation. Compound A may be synthesized as described in WO/18/111707. Compound A is prepared as a 20 mM stock in 100% DMSO (dimethyl sulfoxide) (Sigma, D2438) and diluted serially in 100% DMSO to achieve the desired concentrations. DMSO preparations are further diluted with cell culture media prior to addition in the assay.
(§2) Cell lines. U-87 MG cells (ATCC, HTB-14) are cultured and assayed in MEM (Gibco, 11095) with 2 mM GlutaMAX (Gibco, 35050), 1 mM Pyruvate (Gibco, 11360), 0.1 mM NEAA ((Non-essential amino acid) Gibco, 11140) and 10% dialyzed FBS (Fetal bovine serum) (Gibco, 26400).
(§3) Cell-based inhibition assays. Cell-based assays are performed by measuring 2-HG in U-87 MG cells in which IDH2 mutations are expressed.
(§4) DNA constructs encoding IDH2 mutations are introduced into U-87 MG cells using transfection (Promega FuGENE HD, E2311) or lentiviral transduction, and the IDH2-mutant expressing cell lines are selected using blasticidin (5 μg/ml) or puromycin (1 μg/ml). Second site mutations (Q316E, I319M, P167R, and G260A) are evaluated in cis (same monomer as driver mutation within dimer) or in trans (opposite monomer from driver mutation in dimer). For compound treatments, 12,500 or 50,000 cells per well in culture medium (150 μl or 100 μl, respectively) are plated in 96 well cell culture plates (Falcon, 353377) 2 hrs prior to treatment. Cells are treated with serial dilutions of compound A in standard growth media. Plates are incubated in a mammalian cell culture incubator (humidified, 37° C., 5% CO2) for 16 or 72 hrs. Following the incubation period, the media is aspirated and cell extracts are prepared by addition of ice-cold 80% methanol/20% water (100 μL) containing liquid chromatography-mass spectrometry (LC-MS) internal standards (1 μM ^13C4 α-KG and ^13C5 2-HG) per well for ion pairing LC-MS method. 96-well sample plates are then sealed, shaken at 450 rpm for 10 min, and then placed at −20° C. and stored until LC-MS analysis.
(§5) LC-MS metabolite analysis of conditioned media and cell lysates. The effect of inhibitors on the concentrations of 2-HG are determined by LC-MS analysis of cell lysates using an ion-pairing method as described below.
(§6) Calibration curves are prepared by spiking 2-HG and α-KG into 80% methanol/20% water containing LC-MS internal standards (1 μM ^13C4 α-KG and 1 μM ^13C5 2-HG). The quantitation of 2-HG and α-KG is accomplished using an AB Sciex 6500 mass spectrometer with an Electrospray Ionization (ESI) probe and interfaced with an Ultra Performance Liquid Chromatography (UHPLC) system in the negative multiple-reaction monitoring (MRM) mode. The UHPLC system consists of an Agilent 1290 binary pump, thermostatted column compartment (TCC), and sampler. The injection volume is 1 μL for cell culture extracts. The extracts are chromatographically resolved using a Hypercarb column, 2.1×20 mm, […] Javelin HTS (Thermo Scientific, PN: 35005-022135). Mobile phase A is water/10 mM tributylamine/15 mM acetic acid. Mobile phase B is acetonitrile/20 mM tributylamine/30 mM acetic acid. The solvent flow rate is 1.0 mL/min. The isocratic condition is kept at 26% mobile phase B. The valve, sample loop, and needle are washed with 50% acetonitrile: 50% methanol for 20 seconds. The column temperature is kept at 55° C. Calibration curves are calculated by least-square linear regression with 1/x weighting. 2-HG and α-KG are quantified using standard curve and ratio of the peak area of analytes to internal standard. Data analysis is performed using MultiQuant 3.0 (AB Sciex). The raw data are exported to Microsoft Excel spreadsheets.
(§7) Determination of IC50 Curves. IC50 curves for each compound are obtained using four parameter data fitting analysis in GraphPad/Prism software.

IDH2 R172K_Q316E cis = molecular target: T2, IDH2 R172K_Q316E cis (Homo sapiens, UniProt P48735, Q316E/R172K); assay: as above; type: cell-based; conditions: 16 hours incubation, 50K cells/well, 100 μl media/well, read-out: Relative IC50 (nM) Mean, inhibition of 2-HG production
T2 construct: expressed in transfected cells; host or cells: U-87 MG
T2 sequence (P48735 40-452 R172K/Q316E): T1 sequence (P48735 40-452 R140L) with L101R, R133K, Q277E
Protocol: as §1, §2, §3, §4, §5, §6, §7

Which results are given for `C=CC(=O)N1CCN([C@@H](CC2CC2)c2ccc([C@H](C)Nc3ncc4c(n3)N(CC)C(=O)OC4)cc2)CC1` [Compound A, 7-[[(1S)-1-[4-[(1S)-2-cyclopropyl-1-(4-prop-2-enoylpiperazin-1-yl)ethyl]phenyl]ethyl]amino]-1-ethyl-4H-pyrimido[4,5-d][1,3]oxazin-2-one]?
IC50 (IDH2 R140L_Q316E trans): 262 nM; IC50 (IDH2 R172K_Q316E cis): 76 nM
